Each structure is given as a SMILES string. A value given as a limit tells only on which side of the number the result lay.

We go through 31 molecules from ChEMBL document CHEMBL4024702, “Covalent Modifiers: A Chemical Perspective on the Reactivity of α,β-Unsaturated Carbonyls with Thiols via Hetero-Michael Addition Reactions” (J Med Chem, 2017).

A short description of series [1]: Thiol reactivity of the compound in DMSO/PBS buffer assessed as adduct formation by measuring half life of parent compound by 1H NMR analysis. It is filed as physicochemical.
A short description of series [2]: Cysteine reactivity of the compound assessed as second order rate constant by 1H NMR analysis.
The nature of series [3]: Thiol reactivity of the compound in PBS buffer assessed as adduct formation at 100 to 200 uM at pH 7.4 by UV-visible spectroscopic analysis.
The nature of series [4]: Glutathione reactivity of the compound in DMSO and phosphate buffer assessed as second order rate constant for adduct formation.
The test system of another series is Tetrahymena pyriformis. Kind of series: Toxicity in Tetrahymena pyriformis assessed as growth inhibition after 48 hrs.
Series [5] is described as follows: Glutathione reactivity of the compound in PBS buffer assessed as rate constant for 1,4-adduct formation at pH 7.4.
A short description of series [6]: Glutathione reactivity of the compound in acetonitrile to tris-HCL buffer at pH 7.4 by NMR spectroscopic analysis.
The nature of series [7]: DTT reactivity of the compound in acetonitrile to tris-HCL buffer at pH 7.4 by NMR spectroscopic analysis.
The next series deals with A549. Kind of series: Cytotoxicity against human A549 cells assessed as reduction in cell viability after 96 hrs by SRB asssay. The note with it: A549, 96 h. In kind it is functional, cell-based.
For a further series, the system named is 518A2. Kind of series: Cytotoxicity against human 518A2 cells assessed as reduction in cell viability after 96 hrs by SRB asssay. In kind it is functional, cell-based. Particulars: 518A2, 96 h.
Another series has as its system MCF7. Briefly: Cytotoxicity against human MCF7 cells assessed as reduction in cell viability after 96 hrs by SRB asssay. In kind it is functional, cell-based. The note with it: MCF7, 96 h.
The test system of the next series is HT-29. Briefly: Cytotoxicity against human HT-29 cells assessed as reduction in cell viability after 96 hrs by SRB asssay. It is filed as functional, cell-based. Particulars: HT-29, 96 h.
The next series has as its system A-431. Kind of series: Cytotoxicity against human A431 cells assessed as reduction in cell viability after 96 hrs by SRB asssay. It is filed as functional, cell-based. Particulars: A-431, 96 h.

As to `N#Cc1ccc(C(C#N)C(SCCO)c2ccccc2)cc1` (centres undefined), the t1/2 in series [1] was found to be 8.9 min.

Take `C=C(C)C(=O)O[C@H]1CC2=C[C@@H](C[C@@]3(C)O[C@H]3[C@H]3OC(=O)C(CSC[C@H](N)C(=O)O)[C@@H]31)OC2=O` (some centres undefined): the K in series [2] amounted to 1.7 M⁻¹ s⁻¹.

Turning to `Cc1csc(C(C#N)C(SCCO)c2ccccc2)n1` (centres undefined), the t1/2 in series [1] was less than 1 min.

For `Cc1csc(C(C#N)C(SCCO)C2CC2)n1` (centres undefined), the t1/2 in series [1] stood at 4.8 min.

Broadly, the Kd is a measure of binding affinity in units of concentration. Turning to `N#CC(C(N)=O)C(SCCO)c1ccc(-n2ccnc2)cc1` (centres undefined), the Kd in series [3] amounted to 1300 µM.

By EC50 is commonly meant the concentration needed to bring the measured effect to its halfway point. As for `CCCCCC#CC=O`, the K in series [4] amounted to 487 M⁻¹ s⁻¹. Also, in the series with Tetrahymena pyriformis, the concentration giving a half-maximal response (EC50) stood at 19 µM.

For `NC(=O)CI`, the K in [2] was 25 M⁻¹ s⁻¹.

In the case of `C#CC(=O)OCC` [PROPYNOIC ACID ETHYL ESTER], the K in series [4] was 105 M⁻¹ s⁻¹. The half-maximal effective concentration (EC50) with Tetrahymena pyriformis worked out at 17 µM.

As for `C=C(C)C(=O)OC`, the K in series [4] came to 0.072 M⁻¹ s⁻¹. For the same molecule, the EC50 in the series with Tetrahymena pyriformis worked out at 16600 µM.

Consider `N[C@@H](CSCCC=O)C(=O)O`, for which the K in series [5] is 220 M⁻¹ s⁻¹.

With `N#CC(c1ccncc1)C(SCCO)c1ccccc1` (centres undefined), in [1], the t1/2 turned out to be 4.6 min.

Turning to `N#CC(C(N)=O)C(SCCO)c1ccccc1` (centres undefined), the t1/2 in [1] is reported as less than 1 min.

As to `CC1OC(O)CC1SC[C@@H](N)C(=O)O` (some centres undefined), the K in series [5] is 25 M⁻¹ s⁻¹.

Take `O=C(/C=C/c1ccc(O)cc1)/C=C/c1ccc(O)cc1`: the Activity in [6] worked out at 0.001 M⁻¹ s⁻¹. Moreover, in series [7], the DTT second-order rate constant came to 0.014 M⁻¹ s⁻¹.

In series [6], `O=C1/C(=C/c2ccccc2)CC/C1=C\c1ccccc1` came in with an Activity of 9.3 M⁻¹ s⁻¹. Further, the DTT second-order rate constant in series [7] is 2.3 M⁻¹ s⁻¹.

Turning to `N#CC(C(N)=O)C(SCCO)c1ccsc1` (centres undefined), in [3], the equilibrium dissociation constant (Kd) worked out at 11900 µM.

In turn, `O=C(/C=C/c1ccccc1O)/C=C/c1ccccc1O` registered an Activity in series [6] of 5 M⁻¹ s⁻¹. In [7], this molecule displayed a DTT second-order rate constant of 2.5 M⁻¹ s⁻¹.

`C=CC(=O)CCC`: the K in series [4] came to 1170 M⁻¹ s⁻¹. In addition, in the series on Tetrahymena pyriformis, the EC50 was 22 µM.

For the molecule `CC(O)C(CC1NC(C(=O)O)CS1)SC[C@H](C)C(=O)O` (some centres undefined), the K in series [5] was found to be 1.1 M⁻¹ s⁻¹.

Consider `N[C@@H](CCC(=O)N[C@@H](CSCCC=O)C(=O)NCC(=O)O)C(=O)O`, for which the K in [5] came out at 120 M⁻¹ s⁻¹.

Regarding `N#CC(c1ccncc1)C(SCCO)C1CC1` (centres undefined), the t1/2 in series [1] amounted to 11.9 min.

Regarding `N#CC(C(N)=O)C(SCCO)c1cccc2[nH]ccc12` (centres undefined), the dissociation constant Kd in series [3] came to 6200 µM.

Regarding `CS(=O)(=O)c1ccc(-c2cccc(C(SCCO)C(C#N)C(N)=O)c2)cc1` (centres undefined), the Kd in series [3] was determined as 200 µM.

Regarding `C/C=C(\C)C=O` [2-methyl-(E)-2-butenal], the K in [4] stood at 0.474 M⁻¹ s⁻¹. Besides, in the series on Tetrahymena pyriformis, the concentration giving a half-maximal response (EC50) is 1380 µM.

Consider `CC(CC=O)SC[C@H](N)C(=O)O` (some centres undefined), for which the K in series [5] worked out at 8.9 M⁻¹ s⁻¹.

Turning to `O=C1/C(=C/c2ccccc2O)CC/C1=C\c1ccccc1O`, in series [6], the Activity was 87 M⁻¹ s⁻¹. Also, the DTT second-order rate constant in series [7] amounted to 29 M⁻¹ s⁻¹.

One may read the IC50 as the concentration that inhibits the measured activity by half. With `CC1=CC[C@]23O[C@@]2(C)CC[C@@H]2[C@H](OC(=O)[C@H]2CN2CCNCC2)[C@@H]13`, the IC50 with A549 worked out at 15.7 µM; in the series on 518A2 it was 15 µM; in the series on MCF7 it was 15.1 µM; with HT-29, 15.1 µM; with A-431, 4.4 µM.

With `CC(CC=O)SC[C@H](NC(=O)CC[C@H](N)C(=O)O)C(=O)NCC(=O)O` (some centres undefined), the K in series [5] was determined as 0.78 M⁻¹ s⁻¹.

`O=C(/C=C/c1ccccc1)/C=C/c1ccccc1` came in with an Activity in series [6] of 0.15 M⁻¹ s⁻¹. In addition, in series [7], the DTT second-order rate constant amounted to 0.42 M⁻¹ s⁻¹.

In the case of `CC1=CC[C@]23O[C@@]2(C)CC[C@@H]2[C@H](OC(=O)[C@H]2CSCCO)[C@@H]13`, the IC50 with A549 came to 12.8 µM; with 518A2 it was 16.9 µM; in the series on MCF7, 17.3 µM; in the series on HT-29, 18.6 µM; in the series with A-431 it was 12.8 µM.

Consider `N#CC(C(N)=O)C(SCCO)c1c[nH]cn1` (centres undefined), for which, in series [3], the Kd came to 32800 µM.
